Measurements published in the NIST ThermoML archive (doi:10.1016/j.jct.2010.11.003).

Assay: mn = molality of the nth substance listed, in mol/kg
Conditions: 101 kPa, Liquid; for speed of sound: Sing-around technique in a fixed-path interferometer; for mass density: Vibrating tube method; for viscosity: Capillary tube (Ostwald / Ubbelohde) method

O=C([O-])CC(O)(CC(=O)[O-])C(=O)[O-].[K+].[K+].[K+] [potassium citrate] + O
Conditions | mass density, 298.15 K [kg/m3] | mass density, 303.15 K [kg/m3] | speed of sound, 298.15 K [m/s] | speed of sound, 303.15 K [m/s] | viscosity, 303.15 K [mPa·s]
m1 = 0.0472 | 1006.59 | 1005.15 | – | 1518.1 | 0.821
m1 = 0.0566 | 1008.46 | 1007.02 | – | 1519.9 | 0.822
m1 = 0.066 | 1010.33 | – | – | 1521.7 | 0.825
m1 = 0.0754 | 1012.19 | – | – | 1523.5 | 0.832
m1 = 0.0849 | 1014.06 | – | – | 1525.3 | 0.837
m1 = 0.0943 | 1015.89 | – | – | 1527 | 0.843
m1 = 0.2984 | 1054.02 | – | – | 1563.6 | 0.956
m1 = 0.3971 | 1071.35 | – | 1570.1 | 1580.3 | 1.016
m1 = 0.4955 | 1088.07 | – | 1587 | 1596.8 | 1.08
m1 = 0.5936 | 1104.21 | – | 1603.8 | 1613.3 | 1.145
m1 = 0.7877 | 1134.65 | – | 1636.2 | 1644.5 | 1.295
m1 = 0.9823 | 1163.14 | – | 1667.5 | 1674.8 | 1.458
m1 = 1.175 | 1189.77 | – | – | 1697.5 | 1.647
m1 = 1.366 | 1214.46 | – | – | 1725.7 | 1.853
m1 = 1.555 | 1237.68 | – | – | 1752.6 | 2.085
m1 = 1.837 | 1269.96 | – | – | 1790.3 | 2.484
